US20110301155A1, “INDAZOLE COMPOUNDS FOR ACTIVATING GLUCOKINASE” (priority 2007, published 2011)
Counter-ions that a name gives are not always drawn.

Target: T1, GK (recombinant glucokinase, residues 12-465 of the human enzyme) (Homo sapiens, UniProt P35557)
T1 construct: FLAG (C-terminal tag of vector pFLAG-CTC; only the vector is printed) (C); made in house; host or cells: Escherichia coli DH10b-T1r (pFLAG-CTC plasmid)
T1 sequence (P35557 12-465): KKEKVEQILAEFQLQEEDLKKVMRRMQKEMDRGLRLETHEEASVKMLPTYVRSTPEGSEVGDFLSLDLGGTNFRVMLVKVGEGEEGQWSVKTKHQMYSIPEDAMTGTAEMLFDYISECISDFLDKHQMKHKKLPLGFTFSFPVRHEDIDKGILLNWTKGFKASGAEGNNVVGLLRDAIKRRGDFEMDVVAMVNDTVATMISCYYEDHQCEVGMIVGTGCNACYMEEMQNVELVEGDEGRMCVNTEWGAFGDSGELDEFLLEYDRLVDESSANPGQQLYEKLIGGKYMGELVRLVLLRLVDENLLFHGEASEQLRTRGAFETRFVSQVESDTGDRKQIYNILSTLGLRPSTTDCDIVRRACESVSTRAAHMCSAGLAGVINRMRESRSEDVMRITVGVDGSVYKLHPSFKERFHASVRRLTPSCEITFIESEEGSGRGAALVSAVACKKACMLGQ
Experiment: Determination of GK activity value (luminescence assay)
Format: biochemical
Settings: calculated maximal gain in GK enzyme activity at saturating compound concentration; 5 mM glucose, 5 μM ATP
From the text: DNA encoding residues 12-465 of the full-length sequence of the human enzyme may be amplified by PCR and cloned into the HindIII and EcoRI sites of pFLAG-CTC (Sigma). SEQ.I.D. No. 1 corresponds to residues 12-465 of glucokinase.
The expression of recombinant glucokinase protein may be carried out by transformation and growth of DH10b-T1r E. coli cells incorporating the (pFLAG-CTC) plasmid in LB media. Protein expression can be induced in this system by the addition of IPTG to the culture medium.
Recombinant protein may be isolated from cellular extracts by passage over Sepharose Q Fast Flow resin (Pharmacia). This partially purified GK extract may then be further purified by a second passage over Poros HQ10 (Applied Biosystems). The purity of GK may be determined on denaturing SDS-PAGE gel. Purified GK may then be concentrated to a final concentration of 20.0 mg/ml. After flash freezing in liquid nitrogen, the proteins can be stored at −78° C. in a buffer containing 25 mM TRIS-HCl pH 7.6, 50 mM NaCl, and 0.5 mM TCEP.
The activation properties of compounds for GK may be determined using a black 384-well-plate format under the following reaction conditions: 25 mM Hepes pH 7.2, 25 mM NaCl, 10 mM MgCl2, 0.01% Brij35, 1 mM DTT, 5 μM ATP, 5 mM Glucose 2% DMSO. The amount of ATP consumed may be determined quantitatively by addition of equal volume of luciferase reagent (luciferase+beetle luciferin—KinaseGlo Luminescent Kinase Assay kit from Promega). The luminescence intensity may be measured by using the Analyst HT from LJL Biosystems.
The assay reaction may be initiated as follows: 4 μl of substrate mixture (12.5 μM ATP and 12.5 mM Glucose) was added to each well of the plate, followed by the addition of 2 μl of activator (2 fold serial dilutions for 11 data points for each activator) containing 10% DMSO. 4 μL of 1.25 nM GK solution obtained in Reference Example 3A may be added to initiate the reaction. The reaction mixture may then be incubated at room temperature for 60 min, and quenched and developed by addition of 10 μL of luciferase reagent. Luminescence intensities of the resulting reaction mixtures may be measured after a 10 min incubation at room temperature. The luminescence intensity may be measured by using the Analyst HT from LJL Biosystems.
% ACTmax values may be calculated by non-linear curve fitting of the compound concentrations and luminescence intensities to a standard inhibition/activation equation. % ACTmax represents the calculated maximal gain in GK enzyme activity at a saturating concentration of the compound. % ACTmax values for select compounds of the present invention are given in Table 2.

Compound	% ACTmax
Cn1ccc(Nc2nn(C)c3c(Oc4ccc(S(C)(=O)=O)cc4)cc(-c4ncccc4Cl)cc23)n1 [Example 134, 5-(3-chloropyridin-2-yl)-1-methyl-N-(1-methyl-1H-pyrazol-3-yl)-7-(4-(methylsulfonyl)phenoxy)-1H-indazol-3-amine]	24.1%
COCC(O)Cn1ccc(Nc2n[nH]c3c(Oc4ccc(S(C)(=O)=O)cc4)cc(-c4ncccc4Cl)cc23)n1 (stereo not shown) [Example 140, 1-(3-(5-(3-chloropyridin-2-yl)-7-(4-(methylsulfonyl)phenoxy)-1H-indazol-3-ylamino)-1H-pyrazol-1-yl)-3-methoxypropan-2-ol]	146.5%
CC(C)Oc1cc(Oc2ccc(S(C)(=O)=O)cc2)c2[nH]nc(Nc3ccn(C)n3)c2c1 [Example 133, 5-isopropoxy-N-(1-methyl-1H-pyrazol-3-yl)-7-(4-(methylsulfonyl)phenoxy)-1H-indazol-3-amine]	146.3%
CC(C)S(=O)(=O)c1cc(Oc2ccc(S(C)(=O)=O)cc2)c2[nH]nc(Nc3ccn(C)n3)c2c1 [Example 136, 5-(isopropylsulfonyl)-N-(1-methyl-1H-pyrazol-3-yl)-7-(4-(methylsulfonyl)phenoxy)-1H-indazol-3-amine trifluoroacetic acid salt]	110.9%
